From PubChem BioAssay AID248 (DTP/NCI, 2004)
Toxic doses and inconclusive results are not listed. Cut-off read from the data, not from the text of the source: active = T/C of 150% or more; inactive = T/C below 125%.

Test system: L1210 leukemia ip in BDF1 mice, survival T/C
Experiment: NCI In Vivo Anticancer Drug Screen. Data for tumor model L1210 Leukemia (intraperitoneal) in B6D2F1 (BDF1) mice
Conditions: endpoint: mean survival time, higher = longer survival
How it was run: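 Read-out is survival time, reported as the treated-group measurement over the vehicle-control measurement.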

[1] = dose: 100.0 mg/kg/injection, schedule: Q04DX003 (ip), vehicle: Klucel (hydroxypropylcellulose) (HPC)
[2] = dose: 100.0 mg/kg/injection, schedule: Q01DX001 (ip), vehicle: carboxymethylcellulose (CMC)
[3] = dose: 100.0 mg/kg/injection, schedule: Q01DX009 (ip), vehicle: saline
[4] = dose: 200.0 mg/kg/injection, schedule: Q01DX009 (ip), vehicle: Klucel (hydroxypropylcellulose) (HPC)
[5] = dose: 100.0 mg/kg/injection, schedule: Q04DX003 (ip), vehicle: saline with Tween-80
[6] = dose: 200.0 mg/kg/injection, schedule: Q04DX003 (ip), vehicle: saline with Tween-80
[7] = dose: 100.0 mg/kg/injection, schedule: Q01DX001 (ip), vehicle: saline
[8] = dose: 200.0 mg/kg/injection, schedule: Q01DX001 (ip), vehicle: saline
[9] = dose: 100.0 mg/kg/injection, schedule: Q01DX009 (ip), vehicle: saline with Tween-80
[10] = dose: 200.0 mg/kg/injection, schedule: Q01DX009 (ip), vehicle: saline with Tween-80

Measured: T/C

N#CCCN(CCC#N)/N=N\c1nc[nH]c1C(N)=O
inactive: dose: 50.0 mg/kg/injection, schedule: Q01DX001 (ip), vehicle: water 104 % of control | dose: 50.0 mg/kg/injection, schedule: Q04DX003 (ip), vehicle: water 98 % of control | dose: 100.0 mg/kg/injection, schedule: Q01DX001 (ip), vehicle: other 104 % of control | dose: 100.0 mg/kg/injection, schedule: Q01DX001 (ip), vehicle: water 97 % of control | dose: 100.0 mg/kg/injection, schedule: Q01DX009 (ip), vehicle: other 101 % of control | dose: 100.0 mg/kg/injection, schedule: Q04DX003 (ip), vehicle: other 104 % of control | dose: 100.0 mg/kg/injection, schedule: Q04DX003 (ip), vehicle: water 100 % of control | dose: 200.0 mg/kg/injection, schedule: Q01DX001 (ip), vehicle: other 102 % of control | dose: 200.0 mg/kg/injection, schedule: Q01DX001 (ip), vehicle: water 96 % of control | dose: 200.0 mg/kg/injection, schedule: Q01DX009 (ip), vehicle: other 95 % of control | dose: 200.0 mg/kg/injection, schedule: Q04DX003 (ip), vehicle: other 105 % of control | dose: 200.0 mg/kg/injection, schedule: Q04DX003 (ip), vehicle: water 102 % of control | dose: 400.0 mg/kg/injection, schedule: Q01DX001 (ip), vehicle: other 102 % of control | dose: 400.0 mg/kg/injection, schedule: Q01DX001 (ip), vehicle: water 101 % of control | dose: 400.0 mg/kg/injection, schedule: Q01DX009 (ip), vehicle: other 93 % of control | dose: 400.0 mg/kg/injection, schedule: Q04DX003 (ip), vehicle: other 98 % of control | dose: 400.0 mg/kg/injection, schedule: Q04DX003 (ip), vehicle: water 97 % of control

CCCCOC(=O)c1ccc(OCCOc2ccc(C(C)(C)CC(C)(C)C)cc2)c(NC(=O)CC(=O)c2cccc(N)c2)c1
inactive: dose: 100.0 mg/kg/injection, schedule: Q01DX009 (ip), vehicle: saline sonified 97 % of control | [1] 96 % of control | dose: 200.0 mg/kg/injection, schedule: Q01DX009 (ip), vehicle: saline sonified 91 % of control | dose: 200.0 mg/kg/injection, schedule: Q04DX003 (ip), vehicle: Klucel (hydroxypropylcellulose) (HPC) 93 % of control | dose: 400.0 mg/kg/injection, schedule: Q01DX009 (ip), vehicle: saline sonified 103 % of control | dose: 400.0 mg/kg/injection, schedule: Q04DX003 (ip), vehicle: Klucel (hydroxypropylcellulose) (HPC) 88 % of control

CCCCC(CCC)(CCN)CCCC
inactive: dose: 1.0 mg/kg/injection, schedule: Q01DX009 (ip), vehicle: Klucel (hydroxypropylcellulose) (HPC) 100 % of control | dose: 2.0 mg/kg/injection, schedule: Q01DX009 (ip), vehicle: Klucel (hydroxypropylcellulose) (HPC) 100 % of control | dose: 2.0 mg/kg/injection, schedule: Q04DX003 (ip), vehicle: Klucel (hydroxypropylcellulose) (HPC) 98 % of control | dose: 4.0 mg/kg/injection, schedule: Q01DX009 (ip), vehicle: Klucel (hydroxypropylcellulose) (HPC) 101 % of control | dose: 4.0 mg/kg/injection, schedule: Q04DX003 (ip), vehicle: Klucel (hydroxypropylcellulose) (HPC) 98 % of control | dose: 8.0 mg/kg/injection, schedule: Q01DX009 (ip), vehicle: Klucel (hydroxypropylcellulose) (HPC) 100 % of control | dose: 8.0 mg/kg/injection, schedule: Q04DX003 (ip), vehicle: Klucel (hydroxypropylcellulose) (HPC) 93 % of control | dose: 16.0 mg/kg/injection, schedule: Q04DX003 (ip), vehicle: Klucel (hydroxypropylcellulose) (HPC) 96 % of control | dose: 25.0 mg/kg/injection, schedule: Q01DX001 (ip), vehicle: carboxymethylcellulose (CMC) 95 % of control | [2] 93 % of control

S=C(Nc1ccccc1)N1CCCCC1
inactive: dose: 50.0 mg/kg/injection, schedule: Q01DX001 (ip), vehicle: carboxymethylcellulose (CMC) 97 % of control | [2] 100 % of control | dose: 200.0 mg/kg/injection, schedule: Q01DX001 (ip), vehicle: carboxymethylcellulose (CMC) 97 % of control | dose: 400.0 mg/kg/injection, schedule: Q01DX001 (ip), vehicle: carboxymethylcellulose (CMC) 103 % of control

CC1=CCC(C(C)C)C=C1 (stereo not given)
inactive: dose: 25.0 mg/kg/injection, schedule: Q01DX009 (ip), vehicle: Klucel (hydroxypropylcellulose) (HPC) 101 % of control | dose: 50.0 mg/kg/injection, schedule: Q01DX009 (ip), vehicle: Klucel (hydroxypropylcellulose) (HPC) 96 % of control | dose: 100.0 mg/kg/injection, schedule: Q01DX009 (ip), vehicle: Klucel (hydroxypropylcellulose) (HPC) 102 % of control | [3] 93 % of control | dose: 100.0 mg/kg/injection, schedule: Q04DX003 (ip), vehicle: saline 96 % of control | [4] 96 % of control | dose: 200.0 mg/kg/injection, schedule: Q04DX003 (ip), vehicle: saline 98 % of control | dose: 400.0 mg/kg/injection, schedule: Q04DX003 (ip), vehicle: saline 97 % of control

O=C(O)/C=C(/Cl)c1ccccc1
inactive: [5] 102 % of control | [6] 100 % of control | dose: 400.0 mg/kg/injection, schedule: Q04DX003 (ip), vehicle: saline with Tween-80 108 % of control

CCC(/C=C1\Sc2ccc(C)cc2N1CC)=C\c1sc2ccc(OC)cc2[n+]1CC
inactive: dose: 2.0 mg/kg/injection, schedule: Q01DX001 (ip), vehicle: other 106 % of control | dose: 4.0 mg/kg/injection, schedule: Q01DX001 (ip), vehicle: other 105 % of control

C=CNC(=O)C(c1ccccc1)N1CCCCC1 (stereo not given)
inactive: dose: 100.0 mg/kg/injection, schedule: Q01DX001 (ip), vehicle: Klucel (hydroxypropylcellulose) (HPC) 102 % of control | dose: 200.0 mg/kg/injection, schedule: Q01DX001 (ip), vehicle: Klucel (hydroxypropylcellulose) (HPC) 97 % of control | dose: 400.0 mg/kg/injection, schedule: Q01DX001 (ip), vehicle: Klucel (hydroxypropylcellulose) (HPC) 103 % of control

CC(C)Cn1cnc2c(SCc3ccc(Cl)cc3Cl)nc(N)nc21
inactive: [3] 100 % of control | dose: 100.0 mg/kg/injection, schedule: Q04DX003 (ip), vehicle: acetone 92 % of control | dose: 200.0 mg/kg/injection, schedule: Q01DX009 (ip), vehicle: saline 102 % of control | dose: 200.0 mg/kg/injection, schedule: Q04DX003 (ip), vehicle: acetone 91 % of control | dose: 400.0 mg/kg/injection, schedule: Q01DX009 (ip), vehicle: saline 97 % of control | dose: 400.0 mg/kg/injection, schedule: Q04DX003 (ip), vehicle: acetone 89 % of control

CC1CC(=O)Oc2ccc(C(C)(C)C)cc21 (stereo not given)
inactive: dose: 100.0 mg/kg/injection, schedule: Q01DX001 (ip), vehicle: saline with Tween-80 95 % of control | dose: 200.0 mg/kg/injection, schedule: Q01DX001 (ip), vehicle: saline with Tween-80 91 % of control | dose: 400.0 mg/kg/injection, schedule: Q01DX001 (ip), vehicle: saline with Tween-80 95 % of control

O=C(O)c1ccc(N=Cc2ccc([N+](=O)[O-])s2)cc1
inactive: dose: 25.0 mg/kg/injection, schedule: Q04DX003 (ip), vehicle: saline with Tween-80 94 % of control | dose: 50.0 mg/kg/injection, schedule: Q04DX003 (ip), vehicle: saline with Tween-80 100 % of control | [1] 103 % of control | [5] 102 % of control

COc1ccccc1CN1CCCN(Cc2ccccc2OC)C1c1cc(Br)ccc1O
inactive: dose: 50.0 mg/kg/injection, schedule: Q01DX001 (ip), vehicle: saline 95 % of control | [7] 103 % of control | [8] 103 % of control | dose: 400.0 mg/kg/injection, schedule: Q01DX001 (ip), vehicle: saline 103 % of control

c1cc2c3c(c1)/C(=N\N=C1/CCN4CCCc5cccc1c54)CCN3CCC2
inactive: dose: 50.0 mg/kg/injection, schedule: Q01DX009 (ip), vehicle: saline with Tween-80 91 % of control | [9] 89 % of control | [5] 92 % of control | [10] 92 % of control | [6] 89 % of control

N#CCCC(=O)c1ccccn1
inactive: [4] 100 % of control | dose: 400.0 mg/kg/injection, schedule: Q01DX009 (ip), vehicle: Klucel (hydroxypropylcellulose) (HPC) 93 % of control

C=CCOC(OCC=C)C(OCC=C)OCC=C
inactive: [10] 97 % of control | dose: 400.0 mg/kg/injection, schedule: Q01DX009 (ip), vehicle: saline with Tween-80 104 % of control

C(=NCCN=Cc1c[nH]c2ccccc12)c1c[nH]c2ccccc12
inactive: [9] 100 % of control | [5] 89 % of control | [10] 102 % of control | [6] 96 % of control

C=C1CC2(CCCC3(CC(=C)C(=O)O3)C2(C)C)OC1=O (stereo not given)
inactive: [7] 102 % of control | [8] 119 % of control
